# Data taken from US10633389B2, “CARM1 inhibitors and uses thereof” (Epizyme, Inc., priority 2013, dated 2020).
# Tested on: asymmetric di-methyl PABP1 in RKO cells
# Experiment: RKO methylation assay, In Cell Western (ICW) for asymmetric di-methyl PABP1
# Assay type: cell-based
# Details: Homo sapiens, RKO, Cellular potencies, ICW PABP1me2a
# Outline: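 In-cell Western on fixed RKO cells after 48 h compound exposure: anti-asymmetric di-methyl PABP1 signal at 800 nm over DRAQ5 DNA signal at 700 nm. Percent inhibition set between DMSO wells and wells with 20 μM reference compound; IC50 curves fitted in triplicate.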
row,IC50,Structure (SMILES)
1,< 5 µM,CCOC(=O)N1CCCC(CNc2nc(-c3cccc(OCC(O)CNC)c3)nc(-c3c(C)noc3C)c2C)C1 (centres unmarked) [Example 194-1a]
2,< 5 µM,CNC[C@@H](O)COc1ccc(Cl)c(-c2nc(N[C@@H]3CCN(C)C[C@@H]3F)c(C)c(-c3c(C)noc3C)n2)c1 [Example 194-3]
3,< 5 µM,CNCC(O)COc1cccc(-c2nc(NC3CCN(CC(F)F)C3)c(C)c(-c3c(C)noc3C)n2)c1 (centres unmarked) [Example 195-1a]
4,< 5 µM,CNC[C@@H](O)COc1ccc(Cl)c(-c2nc(N[C@H]3CCN(C4CC4)C[C@H]3F)c(Cl)c(-c3c(C)noc3C)n2)c1 [Example 195-3]
5,< 5 µM,CCOC(=O)N1CCC(Nc2nc(-c3cccc(OCC(O)CNC)c3)nc(-c3c(C)noc3C)c2C)C1 (centres unmarked) [Example 196-1a]
6,< 5 µM,CNC[C@@H](O)COc1ccc(Cl)c(-c2nc(N[C@H]3CCO[C@H](C)C3)c(C)c(-c3c(C)noc3C)n2)c1 [Example 196-3]
7,< 5 µM,CCS(=O)(=O)N1CCC(Nc2nc(-c3cccc(OCC(O)CNC)c3)nc(-c3c(C)noc3C)c2C)C1 (centres unmarked) [Example 197-1a]
8,< 5 µM,CNC[C@@H](O)COc1ccc(Cl)c(-c2nc(N[C@H]3CCO[C@H](C)C3)c(Cl)c(-c3c(C)noc3C)n2)c1 [Example 197-3]
9,< 5 µM,CNCC(O)COc1cccc(-c2nc(NC3CCCN(S(C)(=O)=O)C3)c(C)c(-c3c(C)noc3C)n2)c1 (centres unmarked) [Example 198-1a]
10,< 5 µM,CNC[C@@H](O)COc1ccc(Cl)c(-c2nc(N[C@H]3CO[C@H](C)C3)c(C)c(-c3c(C)noc3C)n2)c1 [Example 198-3]
11,< 5 µM,CNCC(O)COc1cccc(-c2nc(-c3c(C)noc3C)c(C)c(N3C[C@H](C)O[C@@H](C)C3)n2)c1 (some centres unmarked) [Example 199-1a]
12,< 5 µM,CNC[C@@H](O)COc1ccc(Cl)c(-c2nc(-c3c(C)noc3C)c(C)c(N3CCc4ncccc43)n2)c1 [Example 199-3]
13,< 5 µM,CNCC(O)COc1cccc(-c2nc(-c3c(C)noc3C)c(C)c(N3CCOC(C)(C)C3)n2)c1 (centres unmarked) [Example 200-1a]
14,< 5 µM,CNC[C@@H](O)COc1ccc(C(F)(F)F)c(-c2nc(NC3CCOCC3)c(C)c(-c3c(C)noc3C)n2)c1 [Example 200-3]
15,< 5 µM,CNCC(O)COc1cccc(-c2nc(NC3CCCN(C(=O)OC)C3)c(C)c(-c3c(C)noc3C)n2)c1 (centres unmarked) [Example 201-1a]
16,< 5 µM,CNC[C@@H](O)COc1ccc(Cl)c(-c2nc(N[C@H]3CO[C@H](C)C3)c(Cl)c(-c3c(C)noc3C)n2)c1 [Example 201-3]
17,< 5 µM,CNCC(O)COc1cccc(-c2nc(NC3CCN(C(=O)OC)CC3)c(Cl)c(-c3c(C)noc3C)n2)c1 (centres unmarked) [Example 202-1a]
18,< 5 µM,CNC[C@@H](O)COc1ccc(Cl)c(-c2nc(N[C@H]3CN(C(=O)OC)C[C@@H]3F)c(C)c(-c3c(C)noc3C)n2)c1 [Example 202-3]
19,< 5 µM,CNC[C@@H](O)COc1ccc(Cl)c(-c2nc(N[C@H]3CN(C4CC4)C[C@@H]3F)c(C)c(-c3c(C)noc3C)n2)c1 [Example 203-3]
20,< 5 µM,CCS(=O)(=O)N1CCCC(Nc2nc(-c3cccc(OCC(O)CNC)c3)nc(-c3c(C)noc3C)c2C)C1 (centres unmarked) [Example 204-1a]
21,< 5 µM,CNC[C@@H](O)COc1ccc(C(F)(F)F)c(-c2nc(NC3CCN(C(=O)OC)CC3)c(C)c(-c3c(C)noc3C)n2)c1 [Example 204-3]
22,< 5 µM,CNCC(O)COc1cccc(-c2nc(NCC3CCN(CC(F)F)CC3)c(C)c(-c3c(C)noc3C)n2)c1 (centres unmarked) [Example 205-1a]

row,IC50,Structure (SMILES)
1,< 5 µM,CNC[C@@H](O)COc1ccc(Cl)c(-c2nc(-c3c(C)noc3C)c(C)c(C3CC3)n2)c1 [Example 205-3]
2,< 5 µM,CCOC(=O)N1CCOC[C@@H]1CNc1nc(-c2cccc(OCC(O)CNC)c2)nc(-c2c(C)noc2C)c1C (some centres unmarked) [Example 206-1a]
3,< 5 µM,CNC[C@@H](O)COc1ccc(Cl)c(-c2nc(-c3c(C)noc3C)c(C)c(N3CC(F)C3)n2)c1 [Example 206-3]
4,< 5 µM,CNCC(O)COc1cccc(-c2nc(NC3CCNC[C@H]3F)c(C)c(-c3c(C)noc3C)n2)c1 (some centres unmarked) [Example 207-1a]
5,< 5 µM,CNC[C@@H](O)COc1ccc(Cl)c(-c2nc(-c3c(C)noc3C)c(C)c(N3CCC3C)n2)c1 (some centres unmarked) [Example 207-3]
6,< 5 µM,CNCC(O)COc1cccc(-c2nc(NC3CCN(C(=O)OC(C)(C)C)C[C@H]3F)c(C)c(-c3c(C)noc3C)n2)c1 (some centres unmarked) [Example 208-1a]
7,< 5 µM,CNC[C@@H](O)COc1ccc(Cl)c(-c2nc(N[C@H]3CCN(C)C[C@H]3F)c(Cl)c(-c3c(C)noc3C)n2)c1 [Example 208-3]
8,5 to 10 µM,CNCC(O)COc1cccc(-c2nc(-c3c(C)noc3C)c(C)c(N3CCO[C@@H](C)C3)n2)c1 (some centres unmarked) [Example 209-1a]
9,< 5 µM,CNC[C@@H](O)COc1ccc(Cl)c(-c2nc(N[C@H]3COC[C@@H]3O)c(C)c(-c3c(C)noc3C)n2)c1 [Example 209-3]
10,< 5 µM,CNCC(O)COc1cccc(-c2nc(Nc3cn(C)cn3)c(C)c(-c3c(C)noc3C)n2)c1 (centres unmarked) [Example 210-1a]
11,< 5 µM,CNC[C@@H](O)COc1ccc(Cl)c(-c2nc(N[C@@H]3CCN(C)C[C@@H]3F)c(Cl)c(-c3c(C)noc3C)n2)c1 [Example 210-3]
12,< 5 µM,CNCC(O)COc1cccc(-c2nc(-c3c(C)noc3C)c(C)c(N3CCO[C@H](C)C3)n2)c1 (some centres unmarked) [Example 211-1a]
13,< 5 µM,CNC[C@@H](O)COc1ccc(Cl)c(-c2nc(N[C@@H]3CCN(C4CC4)C[C@@H]3F)c(Cl)c(-c3c(C)noc3C)n2)c1 [Example 211-3]
14,< 5 µM,CNCC(O)COc1cccc(-c2nc(NC3C4COCC43)c(C)c(-c3c(C)noc3C)n2)c1 (centres unmarked) [Example 212-1a]
15,< 5 µM,CNC[C@@H](O)COc1ccc(Cl)c(-c2nc(N[C@H]3CC[C@@H](OC)C3)c(C)c(-c3c(C)noc3C)n2)c1 [Example 212-3]
16,< 5 µM,CNC[C@@H](O)COc1ccc(Cl)c(-c2nc(-c3c(C)noc3C)c(C)c(N(C)[C@H]3CC[C@@H](OC)C3)n2)c1 [Example 213-3]
17,< 5 µM,CNC[C@@H](O)COc1ccc(Cl)c(-c2nc(-c3c(C)noc3C)c(Cl)c(N3Cc4ccncc4C3)n2)c1 [Example 214-3]
18,< 5 µM,CNCC(O)COc1cccc(-c2nc(Nc3nncs3)c(C)c(-c3c(C)noc3C)n2)c1 (centres unmarked) [Example 215-1a]
19,< 5 µM,CNC[C@@H](O)COc1ccc(Cl)c(-c2nc(NC[C@H]3CCCO3)c(Cl)c(-c3c(C)noc3C)n2)c1 [Example 215-3]
20,< 5 µM,CNCC(O)COc1cccc(-c2nc(NC3CCCN(C(=O)N(C)C)C3)c(C)c(-c3c(C)noc3C)n2)c1 (centres unmarked) [Example 216-1a]
21,< 5 µM,CNC[C@@H](O)COc1ccc(Cl)c(-c2nc(N[C@H]3C[C@@H](OC)C3)c(Cl)c(-c3c(C)noc3C)n2)c1 [Example 216-3]
22,< 5 µM,CNCC(O)COc1cccc(-c2nc(Nc3nnc(C4CC4)s3)c(C)c(-c3c(C)noc3C)n2)c1 (centres unmarked) [Example 217-1a]

row,IC50,Structure (SMILES)
1,< 5 µM,CNC[C@@H](O)COc1ccc(Cl)c(-c2nc(N[C@H]3C[C@H](OC)C3)c(Cl)c(-c3c(C)noc3C)n2)c1 [Example 217-3]
2,< 5 µM,CNCC(O)COc1cccc(-c2nc(N[C@H]3CCC[C@H]3O)c(C)c(-c3c(C)noc3C)n2)c1 (some centres unmarked) [Example 218-1a]
3,< 5 µM,CNCC(O)COc1ccc(Cl)c(-c2nc(NC3CC4(CC4)C3)c(C)c(-c3c(C)noc3C)n2)c1 (centres unmarked) [Example 218-3]
4,< 5 µM,CNCC(O)COc1cccc(-c2nc(NC3CCC[C@H]3O)c(C)c(-c3c(C)noc3C)n2)c1 (some centres unmarked) [Example 219-1a]
5,< 5 µM,CNC[C@@H](O)COc1ccc(Cl)c(-c2nc(NC3CC(COC)C3)c(C)c(-c3c(C)noc3C)n2)c1 (some centres unmarked) [Example 219-3]
6,< 5 µM,CNCC(O)COc1cccc(-c2nc(N[C@@H]3CCOC[C@@H]3OC)c(C)c(-c3c(C)noc3C)n2)c1 (some centres unmarked) [Example 220-1a]
7,< 5 µM,CNC[C@@H](O)COc1ccc(Cl)c(-c2nc(-c3c(C)noc3C)c(C)c(N(C)C3CC(COC)C3)n2)c1 (some centres unmarked) [Example 220-3]
8,< 5 µM,CNCC(O)COc1cccc(-c2nc(N[C@H]3C[C@H](C(=O)OC)C3)c(C)c(-c3c(C)noc3C)n2)c1 (some centres unmarked) [Example 221-1a]
9,< 5 µM,CCOC(=O)N1CCC[C@H]1CCOc1nc(-c2cc(OC[C@H](O)CNC)ccc2Cl)nc(-c2c(C)noc2C)c1C [Example 221-3]
10,< 5 µM,CCO[C@H]1CCC[C@@H]1Nc1nc(-c2cc(OC[C@H](O)CNC)ccc2Cl)nc(-c2c(C)noc2C)c1C [Example 222-3]
11,< 5 µM,CNC[C@@H](O)COc1ccc(F)c(-c2nc(-c3c(C)noc3C)c(C)c(N3Cc4cnn(C)c4C3)n2)c1 [Example 223-3]
12,< 5 µM,CNCC(O)COc1cccc(-c2nc(N[C@@H]3CCNC[C@@H]3F)c(C)c(-c3c(C)noc3C)n2)c1 (some centres unmarked) [Example 224-1a]
13,< 5 µM,CNC[C@@H](O)COc1ccc(Cl)c(-c2nc(-c3c(C)noc3C)c(C)c(N3Cc4[nH]nc(C)c4C3)n2)c1 [Example 224-3]
14,< 5 µM,CNCC(O)COc1cccc(-c2nc(N[C@@H]3CCN(C(=O)OC)C[C@@H]3F)c(C)c(-c3c(C)noc3C)n2)c1 (some centres unmarked) [Example 225-1a]
15,< 5 µM,CNC[C@@H](O)COc1ccc(Cl)c(-c2nc(-c3c(C)noc3C)c(Cl)c(N3Cc4nccnc4C3)n2)c1 [Example 225-3]
16,< 5 µM,CCOC(=O)N1CC[C@@H](Nc2nc(-c3cccc(OCC(O)CNC)c3)nc(-c3c(C)noc3C)c2C)[C@@H](F)C1 (some centres unmarked) [Example 226-1a]
17,< 5 µM,CNC[C@@H](O)COc1ccc(F)c(-c2nc(-c3c(C)noc3C)c(C)c(N3Cc4nccnc4C3)n2)c1 [Example 226-3]
18,< 5 µM,CNCC(O)COc1cccc(-c2nc(N[C@@H]3CCN(C(=O)OC(C)(C)C)C[C@@H]3F)c(C)c(-c3c(C)noc3C)n2)c1 (some centres unmarked) [Example 227-1a]
19,< 5 µM,CNC[C@@H](O)COc1ccc(F)c(-c2nc(-c3c(C)noc3C)c(C)c(N3CC4(CCOCC4)C3)n2)c1 [Example 227-3]
20,< 5 µM,CNCC(O)COc1cccc(-c2nc(N[C@@H]3CCN(C(=O)OC)C[C@H]3F)c(C)c(-c3c(C)noc3C)n2)c1 (some centres unmarked) [Example 228-1a]

row,Structure (SMILES),IC50
1,CNCC(O)COc1cccc(-c2nc(NC3CCCN(CC(F)F)C3)c(C)c(-c3c(C)noc3C)n2)c1 (centres unmarked) [Example 203-1a],< 5 µM
